Measured values: patent US20220233512A1, “INHIBITING AN IMMUNE RESPONSE MEDIATED BY ONE OR MORE OF TLR2, RAGE, CCR5, CXCR4 AND CD4” (priority 2020, published 2022)

Biological target: T1, FLNA-TLR2 association (Homo sapiens, UniProt P21333)
T1 construct: Human postmortem frontal cortex slices; from tissue; host or cells: human postmortem frontal cortex slices
Test: FLNA-TLR2 association in human postmortem frontal cortex slices
Assay type: cell-based
Settings: 1 or 10 nM compound; LTA-SA, PGN-SA or Ab42; p<0.01
Procedure: As will be seen from examination of FIG. 3 and FIG. 4, the ratio of TLR2 to FLNA increased with administration of each of LTA-SA, PGN-SA and Ab42 at a statistically significant amount relative to the control (p<0.01). Those changes in expression of TLR2 relative to FLNA were each inhibited by the presence of the 1 or 10 nM Compound C0105 at a statistically significant amount relative to the control (p<0.01) and relative to the ligand used. See, FIG. 3B.
Postmortem frontal cortex tissues were gradually thawed (from −80° C. to −20° C.) and were sliced using a chilled McIlwain tissue chopper ([…]). […]
The resultant immunocomplexes were pelleted by centrifugation at 4° C. […] The content of a7nAChRs in 50% of the obtained anti-Ab42 immunoprecipitate was determined by Western blotting with monoclonal anti-a7nAChR antibodies. […]
The content of b-actin in resultant immunoprecipitates is then analyzed by immunoblotting using monoclonal anti-b-actin to illustrate even immunoprecipitation efficiency and loading. […]

T1 sequence (P21333 2-2647 limits assumed): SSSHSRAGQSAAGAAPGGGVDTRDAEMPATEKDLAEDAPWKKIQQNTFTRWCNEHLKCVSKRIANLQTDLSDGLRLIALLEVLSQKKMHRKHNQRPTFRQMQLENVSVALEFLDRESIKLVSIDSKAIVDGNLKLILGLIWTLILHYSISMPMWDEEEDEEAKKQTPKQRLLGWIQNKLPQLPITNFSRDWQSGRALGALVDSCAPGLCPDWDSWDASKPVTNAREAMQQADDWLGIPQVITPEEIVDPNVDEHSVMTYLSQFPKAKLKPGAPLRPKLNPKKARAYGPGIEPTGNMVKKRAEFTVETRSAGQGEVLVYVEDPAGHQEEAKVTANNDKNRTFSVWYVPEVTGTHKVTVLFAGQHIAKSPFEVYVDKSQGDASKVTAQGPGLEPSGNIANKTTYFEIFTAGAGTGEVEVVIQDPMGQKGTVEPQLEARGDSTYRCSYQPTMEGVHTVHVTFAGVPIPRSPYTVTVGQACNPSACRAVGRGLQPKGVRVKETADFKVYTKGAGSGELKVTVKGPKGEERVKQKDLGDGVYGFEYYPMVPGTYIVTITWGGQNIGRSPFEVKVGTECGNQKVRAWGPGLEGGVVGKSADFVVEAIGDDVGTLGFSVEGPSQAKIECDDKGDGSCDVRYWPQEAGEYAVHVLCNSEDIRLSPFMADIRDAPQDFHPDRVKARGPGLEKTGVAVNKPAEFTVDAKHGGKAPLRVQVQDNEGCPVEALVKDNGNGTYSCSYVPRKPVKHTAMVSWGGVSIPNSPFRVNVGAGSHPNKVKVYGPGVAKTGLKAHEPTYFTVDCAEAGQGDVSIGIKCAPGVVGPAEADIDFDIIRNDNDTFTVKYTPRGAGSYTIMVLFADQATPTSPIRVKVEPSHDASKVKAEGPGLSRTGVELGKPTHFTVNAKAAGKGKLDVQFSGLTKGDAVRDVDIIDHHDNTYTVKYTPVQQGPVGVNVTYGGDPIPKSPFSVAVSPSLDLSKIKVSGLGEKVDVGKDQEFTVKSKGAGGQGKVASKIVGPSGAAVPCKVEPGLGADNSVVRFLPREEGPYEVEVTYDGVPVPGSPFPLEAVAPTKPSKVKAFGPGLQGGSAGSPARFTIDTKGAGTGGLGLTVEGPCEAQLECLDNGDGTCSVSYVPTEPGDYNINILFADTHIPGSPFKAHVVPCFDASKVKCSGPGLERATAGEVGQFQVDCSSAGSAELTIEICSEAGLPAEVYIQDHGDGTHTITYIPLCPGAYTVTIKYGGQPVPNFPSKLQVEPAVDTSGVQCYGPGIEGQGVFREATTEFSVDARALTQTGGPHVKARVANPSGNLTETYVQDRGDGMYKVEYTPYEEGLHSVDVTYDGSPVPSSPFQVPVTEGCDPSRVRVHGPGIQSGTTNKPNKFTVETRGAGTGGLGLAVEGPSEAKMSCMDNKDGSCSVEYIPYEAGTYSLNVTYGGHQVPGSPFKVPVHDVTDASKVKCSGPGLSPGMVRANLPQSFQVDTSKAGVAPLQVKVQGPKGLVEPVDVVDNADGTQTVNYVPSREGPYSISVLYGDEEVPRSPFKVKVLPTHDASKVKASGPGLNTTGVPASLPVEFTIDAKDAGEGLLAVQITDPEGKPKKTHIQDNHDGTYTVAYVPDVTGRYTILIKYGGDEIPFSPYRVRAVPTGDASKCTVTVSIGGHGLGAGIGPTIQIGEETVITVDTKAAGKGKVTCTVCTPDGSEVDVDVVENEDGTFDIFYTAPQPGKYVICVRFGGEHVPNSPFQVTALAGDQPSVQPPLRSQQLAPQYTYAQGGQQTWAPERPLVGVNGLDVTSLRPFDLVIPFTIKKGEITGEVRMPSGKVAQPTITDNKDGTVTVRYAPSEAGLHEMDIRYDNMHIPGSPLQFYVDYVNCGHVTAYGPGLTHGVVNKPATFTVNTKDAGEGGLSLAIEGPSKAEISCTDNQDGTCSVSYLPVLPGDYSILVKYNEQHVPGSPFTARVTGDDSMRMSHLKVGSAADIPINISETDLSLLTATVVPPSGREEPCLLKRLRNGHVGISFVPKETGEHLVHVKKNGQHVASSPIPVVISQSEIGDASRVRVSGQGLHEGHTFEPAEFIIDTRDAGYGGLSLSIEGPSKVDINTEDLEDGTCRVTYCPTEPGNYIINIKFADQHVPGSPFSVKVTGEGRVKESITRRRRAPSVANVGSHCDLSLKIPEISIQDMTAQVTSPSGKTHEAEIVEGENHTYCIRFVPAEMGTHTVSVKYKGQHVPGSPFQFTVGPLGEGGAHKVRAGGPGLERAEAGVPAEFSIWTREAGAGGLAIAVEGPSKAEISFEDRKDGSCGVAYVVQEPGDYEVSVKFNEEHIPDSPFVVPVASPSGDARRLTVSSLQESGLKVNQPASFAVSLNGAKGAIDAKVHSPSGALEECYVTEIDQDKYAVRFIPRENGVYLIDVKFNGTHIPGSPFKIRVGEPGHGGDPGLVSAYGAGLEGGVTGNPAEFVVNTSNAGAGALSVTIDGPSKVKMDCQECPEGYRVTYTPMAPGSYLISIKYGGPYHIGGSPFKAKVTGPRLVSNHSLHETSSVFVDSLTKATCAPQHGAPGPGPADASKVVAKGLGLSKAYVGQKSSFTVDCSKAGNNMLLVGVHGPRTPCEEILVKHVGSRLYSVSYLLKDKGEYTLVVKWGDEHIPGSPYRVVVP

For CN1CCC2(CC1)NCC(=O)N2Cc1ccccc1 [Compound C0105M], the “Ligand-induced change in TLR2 relative to FLNA (TLR2/FLNA ratio)” value was “inhibited”.
